According to ChEMBL document CHEMBL3045752, “Sideroxylin and 8-demethylsideroxylin from Eucalyptus saligna (Myrtaceae)” (2001):

Experiments:
Format in all cases: functional
Locusta migratoria = assay: Antifeedant activity against Locusta migratoria final stadium nymphs at 100 ppm by glass-fiber choice assay
Spodoptera exigua = assay: Antifeedant activity against Spodoptera exigua final stadium […] at 100 ppm by glass-fiber choice assay
Heliothis virescens = assay: Antifeedant activity against Heliothis virescens (tobacco budworm) final stadium […] at 100 ppm by glass-fiber choice assay

SMILES	AFI (Locusta migratoria)	AFI (Spodoptera exigua)	AFI (Heliothis virescens)
COc1cc(/C=C/C=O)ccc1O [CONIFERYL ALDEHYDE]	4.5%	4%	2.2%
COc1cc2oc(-c3ccc(O)cc3)cc(=O)c2c(O)c1C [8-DEMETHYLSIDEROXYLIN]	1.9%	8.9%	7.3%
COc1c(C)c(O)c2c(=O)cc(-c3ccc(O)cc3)oc2c1C [SIDEROXYLIN]	24.2%	21.2%	19.6%
